Results published in patent US11000033B2, “Ketone or oxime compound, and herbicide” (NISSAN CHEMICAL CORPORATION, priority 2014, dated 2021).

Columns and labels:
Assay type in all cases: in vivo
[1] = test system: Echinochloa oryzacola Vasing.; test: Test Example 1: herbicidal activity, application before weed generation in submerged conditions (symbol A); conditions: application herbicide amount 320 g/ha
Method in brief: (§1)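 Pre-emergence, paddy conditions: emulsifiable formulation diluted in water, dosed onto floodwater (4 cm depth) on sowing day. Alluvial soil; weeds sown mixed; rice transplanted at 2.5-leaf stage. Greenhouse 25–30 °C, 3 wk. Score 0–5 (5 = ≥90% kill, 0 = ≤5%).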

Scirpus juncoides = test: Test Example 1: herbicidal activity, application before weed generation in submerged conditions (symbol B); conditions: application herbicide amount 320 g/ha
Method in brief: as §1

[2] = test system: Echinochloa crus-galli var. crus-galli; test: Test Example 3: herbicidal effect by foliage application, Wagner pot (symbol H); conditions: application herbicide amount 320 g/ha
Method in brief: (§2)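 Herbicidal activity was rated three weeks after a foliar spray of diluted emulsion concentrate, applied at a predetermined dose to plants grown for 14 days from seed in waterlogged alluvial soil within a 25–30 °C greenhouse.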

Leptochloa chinensis = test: Test Example 3: herbicidal effect by foliage application, Wagner pot (symbol D); conditions: application herbicide amount 320 g/ha
Method in brief: as §2

Cyperus difformis = test: Test Example 3: herbicidal effect by foliage application, Wagner pot (symbol E); conditions: application herbicide amount 320 g/ha
Method in brief: as §2

[3] = test system: directly sowed rice plant; test: Test Example 3: effect on crop by foliage application, Wagner pot (symbol b); conditions: application herbicide amount 320 g/ha
Method in brief: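 Plants are raised from seed in flooded paddy conditions: water stands 0.1–0.5 cm over alluvial soil, and the pot is kept in a greenhouse at 25–30 °C. Species sown are barnyardgrass (E. crus-galli var. crus-galli), Leptochloa chinensis, Cyperus difformis and rice.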

Digitaria ciliaris = test: Test Example 4: herbicidal effect by soil treatment (symbol F); conditions: application herbicide amount 320 g/ha
Method in brief: (§3)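 Seeds were sown in sterilized diluvial soil, covered with about 1.5 cm of soil, and the soil surface was sprayed with a water-diluted emulsion of the compound at a predetermined rate. Plants grew in a greenhouse at 25° C. to 30° C.; effects were scored visually 3 weeks after application.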

Alopecurus myosuroides [4] = test: Test Example 4: herbicidal effect by soil treatment (symbol J); conditions: application herbicide amount 320 g/ha
Method in brief: as §3

corn = test: Test Example 4: effect on crop by soil treatment (symbol c); conditions: application herbicide amount 320 g/ha
Method in brief: (§4)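 Diluvial soil (sterilized) in boxes; seeds placed spot-wise alongside weed species; ~1.5 cm covering soil. Greenhouse, 25–30° C.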

rapeseed = test: Test Example 4: effect on crop by soil treatment (symbol g); conditions: application herbicide amount 320 g/ha
Method in brief: as §4

Alopecurus myosuroides [5] = test: Test Example 5: herbicidal effect by foliage application, plastic box (symbol J); conditions: 320 g/ha, 3 weeks after application
Method in brief: (§5)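 Leaf-applied emulsion, water-diluted to a preset herbicide dose, on two-week-old seedlings raised in a 25° C. to 30° C. greenhouse; injury rated at 3 weeks using earlier criteria.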

Apera spica-venti = test: Test Example 5: herbicidal effect by foliage application, plastic box (symbol L); conditions: 320 g/ha, 3 weeks after application
Method in brief: as §5

Abutilon theophrasti = test: Test Example 5: herbicidal effect by foliage application, plastic box (symbol M); conditions: 320 g/ha, 3 weeks after application
Method in brief: as §5

Stellaria media = test: Test Example 5: herbicidal effect by foliage application, plastic box (symbol P); conditions: 320 g/ha, 3 weeks after application
Method in brief: as §5

wheat = test: Test Example 5: effect on crop by foliage application, plastic box (symbol e); conditions: 320 g/ha, 3 weeks after application
Method in brief: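 Soil: sterilized diluvial. Container: plastic box, 21 × 13 cm, 7 cm deep. Sowing: spot-like, ~1.5 cm cover. Growth: greenhouse, 25° C. to 30° C.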

Structure (SMILES)	Herbicidal effect grade, A: Echinochloa oryzacola Vasing. [1]	Herbicidal effect grade, B: Scirpus juncoides (Scirpus juncoides)	herbicidal effect on H (Echinochloa crus-galli var. crus-galli), grade 0-5 [2]	herbicidal effect on D (Leptochloa chinensis), grade 0-5 (Leptochloa chinensis)	herbicidal effect on E, grade 0-5 (Cyperus difformis)	effect on crop b (directly sowed rice plant), grade 0-5 [3]	F (Digitaria ciliaris) herbicidal effect grade (Digitaria ciliaris)	J (Alopecurus myosuroides) herbicidal effect grade (Alopecurus myosuroides [4])	c (corn) effect on crop grade (corn)	g (rapeseed) effect on crop grade (rapeseed)	J: Alopecurus myosuroides, herbicidal effect grade (Alopecurus myosuroides [5])	L: Apera spica-venti, herbicidal effect grade (Apera spica-venti)	M: Abutilon theophrasti, herbicidal effect grade (Abutilon theophrasti)	P: Stellaria media, herbicidal effect grade (Stellaria media)	e: wheat, effect on crop grade (wheat)
CON=C(C)CC1CC(OC(=O)C(C)(C)Oc2ccc(Cl)cc2)=C(c2c(C)cc(C)cc2C)C1=O (stereo not drawn) [1-051]	5 (Herbicidal ratio of 90% or more (almost completely withered))	5 (Herbicidal ratio of 90% or more (almost completely withered))	5 (Herbicidal ratio of 90% or more (almost completely withered))	5 (Herbicidal ratio of 90% or more (almost completely withered))	5 (Herbicidal ratio of 90% or more (almost completely withered))	5 (Herbicidal ratio of 90% or more (almost completely withered))	5 (Herbicidal ratio of 90% or more (almost completely withered))	5 (Herbicidal ratio of 90% or more (almost completely withered))	4 (Herbicidal ratio of 70% or higher and lower than 90%)	4 (Herbicidal ratio of 70% or higher and lower than 90%)	5 (Herbicidal ratio of 90% or more (almost completely withered))	5 (Herbicidal ratio of 90% or more (almost completely withered))	4 (Herbicidal ratio of 70% or higher and lower than 90%)	3 (Herbicidal ratio of 40% or higher and lower than 70%)	5 (Herbicidal ratio of 90% or more (almost completely withered))
CC(CC1CC(O)=C(c2c(C)cc(C)cc2C)C1=O)=NOC(C)C (stereo not drawn) [1-052]	5 (Herbicidal ratio of 90% or more (almost completely withered))	5 (Herbicidal ratio of 90% or more (almost completely withered))	5 (Herbicidal ratio of 90% or more (almost completely withered))	5 (Herbicidal ratio of 90% or more (almost completely withered))	5 (Herbicidal ratio of 90% or more (almost completely withered))	5 (Herbicidal ratio of 90% or more (almost completely withered))	5 (Herbicidal ratio of 90% or more (almost completely withered))	5 (Herbicidal ratio of 90% or more (almost completely withered))	3 (Herbicidal ratio of 40% or higher and lower than 70%)	3 (Herbicidal ratio of 40% or higher and lower than 70%)	5 (Herbicidal ratio of 90% or more (almost completely withered))	5 (Herbicidal ratio of 90% or more (almost completely withered))	3 (Herbicidal ratio of 40% or higher and lower than 70%)	0 (Herbicidal ratio of 5% or lower (almost no effect))	5 (Herbicidal ratio of 90% or more (almost completely withered))
CC(CC1CC(O)=C(c2c(C)cc(C)cc2C)C1=O)=NOC(C)(C)C (stereo not drawn) [1-053]	5 (Herbicidal ratio of 90% or more (almost completely withered))	3 (Herbicidal ratio of 40% or higher and lower than 70%)	5 (Herbicidal ratio of 90% or more (almost completely withered))	5 (Herbicidal ratio of 90% or more (almost completely withered))	4 (Herbicidal ratio of 70% or higher and lower than 90%)	5 (Herbicidal ratio of 90% or more (almost completely withered))	5 (Herbicidal ratio of 90% or more (almost completely withered))	3 (Herbicidal ratio of 40% or higher and lower than 70%)	1 (Herbicidal ratio of 5% or higher and lower than 20%)	3 (Herbicidal ratio of 40% or higher and lower than 70%)	4 (Herbicidal ratio of 70% or higher and lower than 90%)	3 (Herbicidal ratio of 40% or higher and lower than 70%)	0 (Herbicidal ratio of 5% or lower (almost no effect))	0 (Herbicidal ratio of 5% or lower (almost no effect))	0 (Herbicidal ratio of 5% or lower (almost no effect))
CC(CC1CC(O)=C(c2c(C)cc(C)cc2C)C1=O)=NOCC[Si](C)(C)C (stereo not drawn) [1-055]	5 (Herbicidal ratio of 90% or more (almost completely withered))	3 (Herbicidal ratio of 40% or higher and lower than 70%)	5 (Herbicidal ratio of 90% or more (almost completely withered))	5 (Herbicidal ratio of 90% or more (almost completely withered))	4 (Herbicidal ratio of 70% or higher and lower than 90%)	5 (Herbicidal ratio of 90% or more (almost completely withered))	5 (Herbicidal ratio of 90% or more (almost completely withered))	1 (Herbicidal ratio of 5% or higher and lower than 20%)	0 (Herbicidal ratio of 5% or lower (almost no effect))	0 (Herbicidal ratio of 5% or lower (almost no effect))	4 (Herbicidal ratio of 70% or higher and lower than 90%)	5 (Herbicidal ratio of 90% or more (almost completely withered))	0 (Herbicidal ratio of 5% or lower (almost no effect))	0 (Herbicidal ratio of 5% or lower (almost no effect))	0 (Herbicidal ratio of 5% or lower (almost no effect))
CC(CC1CC(O)=C(c2c(C)cc(C)cc2C)C1=O)=NOCC=CCl (stereo not drawn) [1-056]	5 (Herbicidal ratio of 90% or more (almost completely withered))	5 (Herbicidal ratio of 90% or more (almost completely withered))	5 (Herbicidal ratio of 90% or more (almost completely withered))	5 (Herbicidal ratio of 90% or more (almost completely withered))	5 (Herbicidal ratio of 90% or more (almost completely withered))	5 (Herbicidal ratio of 90% or more (almost completely withered))	5 (Herbicidal ratio of 90% or more (almost completely withered))	5 (Herbicidal ratio of 90% or more (almost completely withered))	3 (Herbicidal ratio of 40% or higher and lower than 70%)	4 (Herbicidal ratio of 70% or higher and lower than 90%)	5 (Herbicidal ratio of 90% or more (almost completely withered))	5 (Herbicidal ratio of 90% or more (almost completely withered))	4 (Herbicidal ratio of 70% or higher and lower than 90%)	0 (Herbicidal ratio of 5% or lower (almost no effect))	5 (Herbicidal ratio of 90% or more (almost completely withered))
